In US8486945B2, “Heterocyclic inhibitors of an Hh-signal cascade, medicinal compositions based thereon and methods for treating diseases caused by the aberrant activity of an Hh-signal system” (priority 2007, dated 2013) one finds IC50 data, which are given here for 32 molecules.

Some results are limits rather than exact numbers.

The first assay relates to Hh-signalling cascade. The assay can be described thus: Inhibition of SHh-induced alkaline phosphatase in C3H10T1/2 cells (Hh-signalling cascade inhibition). It is filed as cell-based. As to conditions: Mus musculus, C3H 10T1/2, half maximal inhibition of SHh (0.3 μg/ml) stimulation of cell alkaline phosphatase. An excerpt:
C3H10T1/2 Cells were used for identification of inhibitors of SHh-protein signaling cascade. SHh-protein activates C3H10T1/2 cells, that leads to their osteogenic differentiation [1) Kinto N., Iwamoto M., Enomoto-Iwamoto M., Noji S., Ohuchi H., Yoshioka H., Kataoka H., Wada Y., Yuhao G., Takahashi H. E., Yoshiki S., Yamaguchi A. Fibroblasts expressing Sonic hedgehog induce osteoblast differentiation and ectopic bone formation. FEBS Lett. 1997; 404(2-3): 319-23. 2) Spinella-Jaegle S., Rawadi G., Kawai S., Gallea S., Faucheu C., Mollat P., Courtois B., Bergaud B., Ramez V., Blanchet A. M., Adelmant G., Baron R., Roman-Roman S. Sonic hedgehog increases the commitment of pluripotent mesenchymal cells into the osteoblastic lineage and abolishes adipocytic differentiation. J. Cell Sci. 2001; 114(Pt 11): 2085-94] and, in particular, to expression enhancement of alkaline phosphatase enzyme.
The cells were cultivated in DMEM medium with 10% embryonal calfish serum in incubator at 37° C., 100% humidity and 5% CO2 content. The cells were placed in 384-well plates and left for night. On the next day the tested compounds in concentration of 10 μM were added to the cells, incubated for 30 min, then recombinant (R & D Systems, USA) SHh protein in concentration of 0.3 μg/ml was added and incubation was continued for 3 days. Cells with DMSO instead of a test compound and cells without SHh protein were used as test control. For determination of the cell alkaline phosphatase activity the cells were lysed in the buffer containing 0.2% Triton-X100, lisates were incubated together with proluminescent substrate CSPD (Applied Biosystems, USA) and the resultant luminescence was measured using reader VICTOR^2V (PerkinElmer, USA).
The ability of the compounds to inhibit Hh-signalling cascade was determined using C3H10T1/2 cells in 384-well plates as described in example 1. The compounds were added in triplicates in various concentrations, prepared by multiple dilution of starting solutions (concentration dependences of cell alkaline phosphatase inhibition induced by the addition of tested compounds are shown in FIG. 1). Activity of the compounds was characterized by their concentrations produced half maximal inhibition of stimulation of cell alkaline phosphatase SHh (IC50).
For orientation: IC50 means the concentration at which inhibition is half-maximal. For the molecule `O=C(Nc1ccc(-c2cn3ccccc3n2)cc1)c1cccs1` [III-1004, N-(4-(Imidazo[1,2-a]pyridin-2-yl)phenyl)thiophen-2-carboxamide], the IC50 was less than 5000 nM. Take `O=C(Nc1ccc(-c2cn3ccccc3n2)cc1)c1ccc(Cl)cc1` [III-1005, 4-Chloro-N-(4-(imidazo[1,2-a]pyridin-2-yl)phenyl)benzamide]: the IC50 is less than 5000 nM.

Take `COc1ccc(C(=O)Nc2ccc(-c3cn4ccccc4n3)cc2)cc1` [III-1006, N-(4-(Imidazo[1,2-a]pyridin-2-yl)phenyl)-4-methoxybenzamide]: the half-inhibitory concentration (IC50) is less than 5000 nM. The same measure, in the same setting: then `CC(=O)Nc1ccc(-c2cn3ccccc3n2)cc1` [III-1007, N-(4-(Imidazo[1,2-a]pyridin-2-yl)phenyl)acetamide], with more than 50000 nM; and `Cc1cccn2cc(-c3ccc(NC(=O)Cc4ccccc4)cc3)nc12` [III-1013, N-[4-(8-Methylimidazo[1,2-a]pyridin-2-yl)phenyl]-2-phenylacetamide], with less than 5000 nM; and `O=C(Nc1cccc(-c2cn3ccccc3n2)c1)c1ccc(F)cc1` [III-1015, 4-Fluoro-N-(3-(imidazo[1,2-a]pyridin-2-yl)phenyl)benzamide], with less than 500 nM. Turning to `COc1ccc(C(=O)Nc2cccc(-c3cn4ccccc4n3)c2)cc1` [III-1018, N-(3-(Imidazo[1,2-a]pyridin-2-yl)phenyl)-4-methoxybenzamide], the IC50 is less than 500 nM. Same read-out and setting: then `COc1ccc(C(=O)Nc2cccc(-c3cn4c(C)cccc4n3)c2)cc1` [III-1019, 4-Methoxy-N-[3-(5-methylimidazo[1,2-a]pyridin-2-yl)phenyl]benzamide], with less than 500 nM. `Cc1nc(-c2ccccc2)sc1C(=O)Nc1cccc(-c2cn3ccccc3n2)c1` [III-1030, 4-Methyl-2-phenylthiazol-5-carboxylic acid [3-(imidazo[1,2-a]pyridin-2-yl)phenyl]amide] yielded an IC50 of less than 500 nM. As for `O=C(Nc1ccc(-c2cn3cccnc3n2)cc1)C1CCCC1` [IV-1002, Cyclopentanecarboxylic acid (4-imidazo[1,2-a]pyrimidin-2-ylphenyl)amide], the IC50 was less than 50000 nM. Consider `COc1ccccc1C(=O)Nc1ccc(-c2cn3cccnc3n2)cc1` [IV-1004, N-(4-(Imidazo[1,2-a]pyrimidin-2-yl)phenyl)-2-methoxybenzamide], for which the IC50 is less than 500 nM. On to `CCn1c(C(=O)N2CCC(C(=O)N3CCN(c4ccccc4)CC3)CC2)cc2sccc21` [V-1008, (4-Ethyl-4H-thieno[3,2-b]pyrrol-5-yl)[4-(4-phenyl-piperazine-1-carbonyl)piperidine-1-yl]methanone], for which the IC50 is less than 50000 nM. Molecule `O=C(NCc1ccccn1)C1CCN(C(=O)c2cc3sccc3n2Cc2ccc(F)cc2F)CC1` [V-1030, 1-[4-(2,4-Difluorobenzyl)-4H-thieno[3,2-b]pyrrole-5-carbonyl]piperidine-4-carboxylic acid [(pyridin-2-yl)methyl]amide] gave an IC50 of less than 5000 nM. `O=C(NCc1cccnc1)C1CCN(C(=O)c2cc3sccc3n2Cc2ccc(F)cc2)CC1` [V-1031] had an IC50 of less than 5000 nM. The same measure, in the same setting: then `CCN(CC)CCCNC(=O)C1CCN(C(=O)c2cc3sccc3n2Cc2ccc(F)cc2)CC1` [V-1032, 1-[4-(4-Fluorobenzyl)-4H-thieno[3,2-b]pyrrole-5-carbonyl]piperidine-4-carboxylic acid 3-(diethylamino)propylamide], with less than 500 nM. Take `Cc1ccc(CNC(=O)C2CCN(C(=O)c3cc4sccc4n3Cc3ccc(F)cc3)CC2)cc1` [V-1033, 1-[4-(4-Fluorobenzyl)-4H-thieno[3,2-b]pyrrole-5-carbonyl]piperidine-4-carboxylic acid [(4-methylphenyl)methyl]amide]: the IC50 is less than 500 nM. Same read-out and setting: with `Cc1ccc(NC(=O)C2CCN(C(=O)c3cc4sccc4n3Cc3ccc(F)cc3)CC2)c(C)c1` [V-1034, 1-[4-(4-Fluorobenzyl)-4H-thieno[3,2-b]pyrrole-5-carbonyl]piperidine-4-carboxylic acid (2,4-dimethylphenyl)amide] the figure was less than 500 nM; with `Cc1ccc(NC(=O)C2CCN(C(=O)c3cc4sccc4n3Cc3ccc(F)cc3)CC2)cc1C` [V-1035, 1-[4-(4-Fluorobenzyl)-4H-thieno[3,2-b]pyrrole-5-carbonyl]piperidine-4-carboxylic acid (3,4-dimethylphenyl)amide], less than 500 nM; with `COCCNC(=O)C1CCN(C(=O)c2cc3sccc3n2Cc2ccc(F)cc2)CC1` [V-1036, 1-[4-(4-Fluorobenzyl)-4H-thieno[3,2-b]pyrrole-5-carbonyl]piperidine-4-carboxylic acid (2-methoxyethyl)amide], less than 500 nM. On to `O=C(NCc1ccc(F)cc1)C1CCN(C(=O)c2cc3sccc3n2Cc2ccc(F)cc2)CC1` [V-1037, 1-[4-(4-Fluorobenzyl)-4H-thieno[3,2-b]pyrrole-5-carbonyl]piperidine-4-carboxylic acid [(4-fluorophenyl)methyl]amide], for which the IC50 was less than 50000 nM.

Consider `CCN1CCCC1CNC(=O)C1CCN(C(=O)c2cc3sccc3n2Cc2ccc(F)cc2)CC1` (centres unmarked) [V-1038, 1-[4-(4-Fluorobenzyl)-4H-thieno[3,2-b]pyrrole-5-carbonyl]piperidine-4-carboxylic acid [(1-ethylpyrrolidin-2-yl)methyl]amide], for which the IC50 is less than 500 nM.

`CCOCCCNC(=O)C1CCN(C(=O)c2cc3sccc3n2Cc2ccc(F)cc2)CC1` [V-1039, 1-[4-(4-Fluorobenzyl)-4H-thieno[3,2-b]pyrrole-5-carbonyl]piperidine-4-carboxylic acid (3-ethoxypropyl)amide]: the IC50 is less than 500 nM. Molecule `COCCCNC(=O)C1CCN(C(=O)c2cc3sccc3n2Cc2ccc(F)cc2)CC1` [V-1040, 1-[4-(4-Fluorobenzyl)-4H-thieno[3,2-b]pyrrole-5-carbonyl]piperidine-4-carboxylic acid (3-methoxypropyl)amide] had an IC50 of less than 500 nM. The same measure, in the same setting: with `O=C(NCCN1CCOCC1)C1CCN(C(=O)c2cc3sccc3n2Cc2ccc(F)cc2F)CC1` [V-1041, 1-[4-(2,4-Difluorobenzyl)-4H-thieno[3,2-b]pyrrole-5-carbonyl]piperidine-4-carboxylic acid (2-N-morpholinoethyl)amide] the figure was less than 500 nM; with `O=C(NCCCN1CCCC1)C1CCN(C(=O)c2cc3sccc3n2Cc2ccc(F)cc2)CC1` [V-1042, 1-[4-(4-Fluorobenzyl)-4H-thieno[3,2-b]pyrrole-5-carbonyl]piperidine-4-carboxylic acid (3-N-pyrrolidinopropyl)amide], less than 500 nM; with `O=C(NCc1ccccn1)C1CCN(C(=O)c2cc3sccc3n2Cc2ccc(Cl)cc2)CC1` [V-1045, 1-[4-(4-Chlorobenzyl)-4H-thieno[3,2-b]pyrrole-5-carbonyl]piperidine-4-carboxylic acid [(pyridin-2-yl)methyl]amide], less than 5000 nM.

The molecule `O=C(NCC1CCCO1)C1CCN(C(=O)c2cc3sccc3n2Cc2ccc(Cl)cc2)CC1` (centres unmarked) [V-1046, 1-[4-(4-Chlorobenzyl)-4H-thieno[3,2-b]pyrrole-5-carbonyl]piperidine-4-carboxylic acid [(tetrahydrofuran-2-yl)methyl]amide] came in with an IC50 of less than 5000 nM. In turn, `COCCCNC(=O)C1CCN(C(=O)c2cc3sccc3n2Cc2ccc(Cl)cc2)CC1` [V-1047, 1-[4-(4-Chlorobenzyl)-4H-thieno[3,2-b]pyrrole-5-carbonyl]piperidine-4-carboxylic acid (3-methoxypropyl)amide] came in with a half-inhibitory concentration (IC50) of less than 500 nM. Turning to `CN1CCN(C(=O)C2CCN(C(=O)c3cc4sccc4n3Cc3ccc(F)cc3)CC2)CC1` [V-1048, [4-(4-Fluorobenzyl)-4H-thieno[3,2-b]pyrrol-5-yl]-[4-(4-methylpiperazine-1-carbonyl)piperidin-1-yl]methanone], the half-maximal inhibitory concentration (IC50) is less than 500 nM. For the molecule `CN1CCN(C(=O)C2CCN(C(=O)c3cc4sccc4n3Cc3cccc(Cl)c3)CC2)CC1` [V-1049, [4-(3-Chlorobenzyl)-4H-thieno[3,2-b]pyrrol-5-yl]-[4-(4-methylpiperazine-1-carbonyl)piperidin-1-yl]methanone], the half-maximal inhibitory concentration (IC50) was less than 500 nM.

Still in this assay, the particulars now being: half maximal inhibition of SHh (0.3 μg/ml) stimulation of cell alkaline phosphatase.
In turn, `O=C(c1cc2sccc2n1Cc1ccc(Cl)cc1)N1CCC(C(=O)N2CCCC2)CC1` [V-1027, [4-(4-Chlorobenzyl)-4H-thieno[3,2-b]pyrrol-5-yl]-[4-(pyrrolidin-1-carbonyl)piperidin-1-yl]methanone] came in with an IC50 of less than 5000 nM. Still for that read-out and setting: then `O=C(c1cc2sccc2n1Cc1ccc(Cl)cc1)N1CCC(C(=O)N2CCCC2)CC1` [V-1044, 1-[4-(4-Chlorobenzyl)-4H-thieno[3,2-b]pyrrole-5-carbonyl]piperidine-4-carboxylic acid tetramethylenamide], with less than 500 nM.
